11 compounds from patent US20030109563A1, “Nematicidal trifluorobutenes” (priority 2000, published 2003) can be followed below.

The test system of this experiment is Meloidogyne incognita. Put plainly: Test against Meloidogyne spp. (soil pot test). The format is in vivo. To be noted: 672 h; 10 ppm in soil contaminated by Meloidogyne incognita; tomato (Kurihara), greenhouse 4 weeks; from root knot index; read-out: controlling effect. The method, then:
Test Against Meloidogyne spp. (Soil Pot Test)
Preparation of Test Agent:
1 Part of the active compound is impregnated to 99 parts of pumice to make fine granules.
A compound of the formula (I) was added to the soil contaminated by Meloidogyne incognita so that the chemical concentration would be 10 ppm and homogeneously mixed by stirring. A pot ( 1/5000 are) was filled with the soil. About 20 seeds of tomato (variety: Kurihara) were sown per pot. After cultivation in a greenhouse for 4 weeks, they were carefully pulled out not to damage the roots and the root knot index and the controlling effect were determined as follows.
1: A few knots were formed
2: Knots were formed to a medium extent
3: Knots were formed to an intense extent
4: Knots were formed to the most intense extent (corresponds to non-treatment). [formula]
Evaluation of the ability of the tested compounds to control the nematodes was done according to the values obtained for the controlling effect and with the following standards. […]
a: Controlling effect 100-71% b: Controlling effect 70-50% c: Controlling effect less than 50%

For `COCc1cnc(SCCC(F)=C(F)F)o1` [Compound 46, 5-methoxymethyl-2-(3,4,4-trifluoro-3-butenylthio)oxazole], the pest or weed control at 10 ppm lay within 71 to 100%. The result for `CS(=O)(=O)Oc1coc(SCCC(F)=C(F)F)n1` [Compound 127, 4-methylsulfonyloxy-2-(3,4,4-trifluoro-3-butenylthio)oxazole] reads 71 to 100%; that for `FC(F)=C(F)CCSc1nc(Cl)co1` [Compound 52, 4-chloro-2-(3,4,4-trifluoro-3-butenylthio)oxazole], 71 to 100%; that for `O=S(=O)(CCC(F)=C(F)F)c1ncco1` [Compound 3, 2-(3,4,4-trifluoro-3-butenylsulfonyl)oxazole], 71 to 100%.

On to `CSCc1coc(SCCC(F)=C(F)F)n1` [Compound 86, 4-methylthiomethyl-2-(3,4,4-trifluoro-3-butenylthio)oxazole], for which the pest or weed control at 10 ppm lay in the range of 71 to 100%. For `OCc1coc(SCCC(F)=C(F)F)n1` [Compound 75, 4-hydroxymethyl-2-(3,4,4-trifluoro-3-butenylthio)oxazole], the pest or weed control at 10 ppm was in the range of 71 to 100%. For `[O-][S+](CCC(F)=C(F)F)c1ncco1` (centres unmarked) [Compound 2, 2-(3,4,4-trifluoro-3-butenylsulfinyl)oxazole] the value was 71 to 100%; for `FC(F)=C(F)CCSc1ncc(Cl)o1` [Compound 4, 5-chloro-2-(3,4,4-trifluoro-3-butenylthio)oxazole], 71 to 100%.

On to `FC(F)=C(F)CCSc1ncco1` [Compound 1, 2-(3,4,4-trifluoro-3-butenylthio)oxazole], for which the pest or weed control at 10 ppm lay within 71 to 100%.

Take `COCc1coc(SCCC(F)=C(F)F)n1` [Compound 78, 4-methoxymethyl-2-(3,4,4-trifluoro-3-butenylthio)oxazole]: the pest or weed control at 10 ppm lay within 71 to 100%. The result for `FC(F)=C(F)CCSc1nc(CBr)c(Br)o1` [Compound 39, 5-bromo-4-bromomethyl-2-(3,4,4-trifluoro-3-butenylthio)oxazole] reads 71 to 100%.
